# Columns and labels:
# [1] = molecular target: T1, MEC-4d, MEC-10d and MEC-2 (Caenorhabditis elegans, UniProt P24612+P34886, A673T/A713T); experiment: Amiloride dose-response, two-electrode voltage clamp in Xenopus oocytes co-expressing MEC-4d, MEC-10d and MEC-2; assay type: cell-based; settings: in the presence of MEC-10d
# T1 construct: Plasmids containing full-length degenerin cDNAs are toxic to standard E. coli strains; expressed in transfected cells; host or cells: Xenopus laevis oocytes injected with cRNA
# T1 sequence (P34886 whole entry A673T): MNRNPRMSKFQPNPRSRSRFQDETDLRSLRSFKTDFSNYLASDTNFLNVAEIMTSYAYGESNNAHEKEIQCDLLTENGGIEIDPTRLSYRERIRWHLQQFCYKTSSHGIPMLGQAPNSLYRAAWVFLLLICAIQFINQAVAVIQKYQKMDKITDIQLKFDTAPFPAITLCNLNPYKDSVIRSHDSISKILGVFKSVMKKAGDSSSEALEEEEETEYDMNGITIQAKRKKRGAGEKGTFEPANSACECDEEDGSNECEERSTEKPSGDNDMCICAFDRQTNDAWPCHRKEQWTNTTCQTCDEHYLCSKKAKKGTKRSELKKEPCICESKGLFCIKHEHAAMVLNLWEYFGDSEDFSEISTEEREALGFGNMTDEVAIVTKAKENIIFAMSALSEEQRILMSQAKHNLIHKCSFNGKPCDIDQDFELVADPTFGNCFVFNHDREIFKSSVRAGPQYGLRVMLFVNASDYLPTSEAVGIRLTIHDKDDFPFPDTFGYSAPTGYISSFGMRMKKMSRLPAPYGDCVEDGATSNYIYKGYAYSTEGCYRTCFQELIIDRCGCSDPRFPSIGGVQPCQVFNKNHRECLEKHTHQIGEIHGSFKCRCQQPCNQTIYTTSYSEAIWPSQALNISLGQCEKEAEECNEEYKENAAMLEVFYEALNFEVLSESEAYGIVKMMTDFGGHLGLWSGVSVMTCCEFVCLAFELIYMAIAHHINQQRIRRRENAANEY
# T1 sequence (P24612 whole entry A713T): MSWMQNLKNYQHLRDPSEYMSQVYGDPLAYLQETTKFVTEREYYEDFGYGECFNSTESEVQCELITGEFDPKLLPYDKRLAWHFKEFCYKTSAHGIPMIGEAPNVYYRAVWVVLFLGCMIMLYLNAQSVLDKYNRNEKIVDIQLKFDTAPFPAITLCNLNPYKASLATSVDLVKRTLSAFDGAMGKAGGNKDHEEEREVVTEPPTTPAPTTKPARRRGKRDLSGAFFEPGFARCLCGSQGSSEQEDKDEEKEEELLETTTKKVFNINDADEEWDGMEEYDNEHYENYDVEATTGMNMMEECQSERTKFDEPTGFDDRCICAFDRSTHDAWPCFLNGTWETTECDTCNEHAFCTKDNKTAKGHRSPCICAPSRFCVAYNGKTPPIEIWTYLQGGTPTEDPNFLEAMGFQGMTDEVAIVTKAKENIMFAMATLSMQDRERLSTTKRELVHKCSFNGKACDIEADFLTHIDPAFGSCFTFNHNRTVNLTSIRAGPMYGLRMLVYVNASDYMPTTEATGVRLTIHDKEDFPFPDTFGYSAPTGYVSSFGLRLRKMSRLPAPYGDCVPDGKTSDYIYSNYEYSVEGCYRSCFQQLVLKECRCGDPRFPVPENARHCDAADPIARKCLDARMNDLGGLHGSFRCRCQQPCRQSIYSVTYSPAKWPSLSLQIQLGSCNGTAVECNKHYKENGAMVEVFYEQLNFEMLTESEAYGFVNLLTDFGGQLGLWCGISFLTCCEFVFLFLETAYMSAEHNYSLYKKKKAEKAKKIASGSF
# Procedure: (§1) Oocyte Expression & Electrophysiology. Capped RNAs (“cRNAs”) were synthesized (T7 mMESSAGE mMACHINE™ kit, Ambion, Austin, Tex.), purified, and quantified spectroscopically. Xenopus laevis oocytes were harvested and injected with 10 ng of each cRNA, except for oocytes co-expressing only MEC-4d and MEC-2(114-363), which were injected with 10 ng of the former and 20 ng of the latter. Oocytes were maintained in L-15 oocyte medium containing 100 μg/mL gentamicin (Cell & Molecular Technologies, Philipsburg, N.J.) at 16-18° C.
# (§2) Membrane potential and current were measured 4-10 days after cRNA injection using a two-electrode voltage clamp (Warner OC-725C) at 22-25° C. […]
# (§3) Analog signals were filtered at 200 Hz and sampled at 1-2 kHz (ITC-16, Instrutech, Great Neck, N.Y.); a 60 Hz notch filter was used to minimize line noise. Average values are reported as mean±S.E.M. Curves were fit by a nonlinear least-squares method (IgorPro 4.01, Wavemetrics, Oswego, Oreg.); the standard deviation measured at each point provided the weighting function. […] Relative permeabilities were calculated from the difference in reversal potential measured in solutions containing Na^+ and each test ion using the Goldman-Hodgkin-Katz equation (Hille, 2001, In: Ion Channels of Excitable Membranes, Sinaur Associates, Inc., Sunderland, Mass.).
# MEC-4d and MEC-2 = molecular target: T2, MEC-4d and MEC-2 (Caenorhabditis elegans, UniProt P24612, A713T); experiment: Amiloride dose-response, two-electrode voltage clamp in Xenopus oocytes co-expressing MEC-4d and MEC-2; assay type: cell-based; settings: in the absence of MEC-10d; without MEC-2(114-363)
# T2 construct: Plasmids containing full-length degenerin cDNAs are toxic to standard E. coli strains; expressed in transfected cells; host or cells: Xenopus laevis oocytes injected with cRNA
# T2 sequence (Q27433 whole entry): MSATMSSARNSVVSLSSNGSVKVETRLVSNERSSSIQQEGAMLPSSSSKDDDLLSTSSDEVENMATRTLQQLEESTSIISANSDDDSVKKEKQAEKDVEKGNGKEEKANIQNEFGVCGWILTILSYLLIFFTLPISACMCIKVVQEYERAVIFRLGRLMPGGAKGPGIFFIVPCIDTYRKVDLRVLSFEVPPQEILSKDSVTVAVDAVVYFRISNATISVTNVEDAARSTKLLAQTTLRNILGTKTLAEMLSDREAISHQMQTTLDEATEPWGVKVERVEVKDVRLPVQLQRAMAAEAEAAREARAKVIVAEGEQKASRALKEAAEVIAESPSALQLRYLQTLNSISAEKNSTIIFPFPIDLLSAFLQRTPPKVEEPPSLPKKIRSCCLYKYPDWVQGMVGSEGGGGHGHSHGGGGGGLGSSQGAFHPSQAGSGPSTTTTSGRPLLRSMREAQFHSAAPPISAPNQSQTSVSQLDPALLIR
# T2 sequence (P24612 whole entry A713T): as the sequence (P24612 whole entry A713T) above
# Procedure: as §1, §2, §3
# UNC-105d = settings: García-Añoveros et al., 1998; cited from earlier work
# αβγENaC channels = molecular target: T3, αβγENaC channels (Rattus norvegicus, UniProt P37089+P37090+P37091); settings: McNicholas and Canessa, 1997; cited from earlier work
# T3 sequence (P37089 1-698): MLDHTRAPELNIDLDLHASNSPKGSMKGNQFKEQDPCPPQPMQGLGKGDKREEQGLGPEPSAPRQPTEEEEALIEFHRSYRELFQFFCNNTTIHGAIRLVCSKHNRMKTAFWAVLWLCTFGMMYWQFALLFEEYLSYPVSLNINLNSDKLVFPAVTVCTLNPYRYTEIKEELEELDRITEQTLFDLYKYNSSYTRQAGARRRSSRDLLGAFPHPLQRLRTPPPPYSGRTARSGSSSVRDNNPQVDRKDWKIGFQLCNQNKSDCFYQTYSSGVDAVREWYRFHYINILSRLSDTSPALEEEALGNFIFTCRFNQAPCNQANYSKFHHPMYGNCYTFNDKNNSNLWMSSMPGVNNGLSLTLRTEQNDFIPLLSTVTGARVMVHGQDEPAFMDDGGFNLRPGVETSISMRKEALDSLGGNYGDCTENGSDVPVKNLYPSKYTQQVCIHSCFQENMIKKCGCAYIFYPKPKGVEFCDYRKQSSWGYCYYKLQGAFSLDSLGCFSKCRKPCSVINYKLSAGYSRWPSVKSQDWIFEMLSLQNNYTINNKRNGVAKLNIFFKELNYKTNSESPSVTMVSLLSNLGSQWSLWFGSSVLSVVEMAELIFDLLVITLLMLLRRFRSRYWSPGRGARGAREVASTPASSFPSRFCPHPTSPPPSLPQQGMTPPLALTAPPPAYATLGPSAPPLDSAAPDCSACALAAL
# T3 sequence (P37090 1-638): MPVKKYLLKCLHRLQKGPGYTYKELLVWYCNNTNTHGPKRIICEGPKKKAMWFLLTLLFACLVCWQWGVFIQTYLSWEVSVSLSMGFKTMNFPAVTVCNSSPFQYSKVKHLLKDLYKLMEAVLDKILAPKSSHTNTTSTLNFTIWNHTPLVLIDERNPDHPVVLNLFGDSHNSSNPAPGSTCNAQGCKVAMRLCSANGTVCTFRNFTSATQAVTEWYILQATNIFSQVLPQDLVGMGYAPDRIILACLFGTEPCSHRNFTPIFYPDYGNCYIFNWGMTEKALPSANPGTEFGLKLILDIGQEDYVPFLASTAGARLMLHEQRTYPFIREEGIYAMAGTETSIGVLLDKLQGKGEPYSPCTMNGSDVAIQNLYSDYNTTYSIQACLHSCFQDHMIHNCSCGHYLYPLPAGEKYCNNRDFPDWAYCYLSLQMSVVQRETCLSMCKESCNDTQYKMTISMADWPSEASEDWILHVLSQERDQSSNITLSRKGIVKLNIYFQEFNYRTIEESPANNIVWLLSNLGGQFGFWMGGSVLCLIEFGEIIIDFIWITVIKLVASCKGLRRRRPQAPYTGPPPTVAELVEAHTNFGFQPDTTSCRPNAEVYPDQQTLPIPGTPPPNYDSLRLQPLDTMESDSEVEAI
# T3 sequence (P37091 1-650): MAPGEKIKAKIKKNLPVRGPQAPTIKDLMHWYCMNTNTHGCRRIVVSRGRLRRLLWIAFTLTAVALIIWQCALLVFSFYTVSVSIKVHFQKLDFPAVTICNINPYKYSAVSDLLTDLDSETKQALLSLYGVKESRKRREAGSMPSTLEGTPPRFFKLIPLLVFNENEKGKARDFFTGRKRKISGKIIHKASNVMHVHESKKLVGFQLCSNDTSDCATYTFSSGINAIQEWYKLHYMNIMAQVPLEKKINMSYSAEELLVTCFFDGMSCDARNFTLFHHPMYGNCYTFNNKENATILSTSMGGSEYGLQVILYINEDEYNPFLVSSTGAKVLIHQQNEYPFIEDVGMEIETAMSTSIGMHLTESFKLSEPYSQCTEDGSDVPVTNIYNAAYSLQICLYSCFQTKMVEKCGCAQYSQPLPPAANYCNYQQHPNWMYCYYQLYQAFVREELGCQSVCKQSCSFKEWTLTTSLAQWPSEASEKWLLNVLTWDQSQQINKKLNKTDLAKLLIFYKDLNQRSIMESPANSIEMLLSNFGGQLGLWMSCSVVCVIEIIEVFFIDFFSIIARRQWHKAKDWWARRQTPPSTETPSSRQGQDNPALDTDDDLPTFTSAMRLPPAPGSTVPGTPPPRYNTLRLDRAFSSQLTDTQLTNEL
compound,measurement,setting,value
N=C(N)NC(=O)c1nc(Cl)c(N)nc1N [amiloride],"δ, voltage-dependence of amiloride blockade (Woodhull model fit)",[1],0.52
same,"δ, voltage-dependence of amiloride blockade (Woodhull model fit)",MEC-4d and MEC-2,0.63
same,"δ, voltage-dependence of amiloride blockade",UNC-105d,0.65-0.68
same,"δ, voltage-dependence of amiloride blockade",αβγENaC channels,0.15

# — patent publication US20040002141A1, “Methods and compositions for propagating vectors containing toxic cDNAs and ion channel assay systems” (priority 2002, published 2004)
